From patent US8383637B2, “2-amino-quinazoline derivatives useful as inhibitors of β-secretase (BACE)” (Jansssen Pharmaceutica N.V., priority 2004, dated 2013)

Biological target: T1, β-secretase(BACE) (Homo sapiens, UniProt P56817)
T1 construct: purchased Panvera
Assay: BACE FS1% Inhibition Assay
Format: biochemical
Settings: FS1 substrate
How it was run: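 Percent inhibition at each tested concentration, referenced to enzyme-free blank and vehicle-only positive control. Reaction: compound and BACE (4 μg/mL working stock) mixed 20 min at room temperature before FS1 substrate (300 μg/mL working stock), then 1 h at room temperature.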

T1 sequence (P56817 46-501): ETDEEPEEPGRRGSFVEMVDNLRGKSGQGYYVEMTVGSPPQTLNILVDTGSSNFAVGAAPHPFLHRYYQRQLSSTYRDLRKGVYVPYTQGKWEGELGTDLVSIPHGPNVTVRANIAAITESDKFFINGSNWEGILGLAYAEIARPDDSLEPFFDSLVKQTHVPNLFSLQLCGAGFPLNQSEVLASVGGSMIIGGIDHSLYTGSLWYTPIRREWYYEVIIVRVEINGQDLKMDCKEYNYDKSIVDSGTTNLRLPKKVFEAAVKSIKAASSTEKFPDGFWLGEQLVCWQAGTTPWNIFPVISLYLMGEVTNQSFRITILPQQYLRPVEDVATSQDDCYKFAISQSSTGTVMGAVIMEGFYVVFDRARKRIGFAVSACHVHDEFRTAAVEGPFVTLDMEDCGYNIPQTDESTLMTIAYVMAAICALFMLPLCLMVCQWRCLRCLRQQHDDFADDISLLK

Compound	% Inhibition (FS) 0.3 μM (0.3 μM test compound)	% Inhibition (FS) 1 μM (1 μM test compound)	% Inhibition (FS) 3 μM (3 μM test compound)	% Inhibition (FS) (0.3 μM test compound)	% Inhibition (FS) (1 μM test compound)	% Inhibition (FS) (3 μM test compound)	% Inhibition (FS) 1 μM (1 μM test compound, 1 µM)	% Inhibition (FS) 3 μM (3 μM test compound, 3 µM)
CC(=O)Nc1ccccc1-c1ccc2c(c1)CN(CCNC(=O)C1CCCCC1)C(N)=N2 [Compound 541]	<30%	<30%	<30%					
CCCCC(CC)C(=O)NCCN1Cc2cc(-c3ccccc3C)ccc2N=C1N (stereo not drawn) [Compound 662]				66%	97%	109%		
CC1CCC(C(=O)NCCN2Cc3cc(Oc4ccccc4)ccc3N=C2N)CC1 (stereo not drawn) [Compound 191]	<30%	46%	88%					
NC1=Nc2ccc(-c3cccc(C(F)(F)F)c3)cc2CN1CCNC(=O)Cc1ccccc1 [Compound 600]	<30%	<30%	41%					
CC(CC(=O)NCCN1Cc2cc(-c3ccccc3F)ccc2N=C1N)C(F)(F)F (stereo not drawn) [Compound 681]				67%	100%	103%		
COc1ccccc1-c1ccc2c(c1)CN([C@@H](CCC(=O)N(C)Cc1cc(-c3ccccc3)on1)C1CCCCC1)C(N)=N2 [Compound 719]				31%	<30%	81%		
NC1=Nc2ccc(Oc3ccccc3)cc2CN1C1CCN(C(=O)C23CC4CC(CC(C4)C2)C3)CC1 [Compound 524]	<30%	<30%	44%					
NC1=Nc2ccc(Oc3ccccc3)cc2CN1C(CNC(=O)C12CC3CC(CC(C3)C1)C2)C1CCCCC1 (stereo not drawn) [Compound 312]	74%	103%	115%					
CN(C(=O)c1cccc(CN2Cc3cc(-c4ccccc4Oc4ccccc4)ccc3N=C2N)c1)C1CCCCC1 [Compound 326]	<30%	35%	79%					
CCCCCOc1ccc2c(c1)CN(Cc1cccc(C(=O)N(C)C3CCCCC3)c1)C(N)=N2 [Compound 516]	<30%	<30%	<30%					
NC1=Nc2ccc(Oc3ccccc3)cc2CN1Cc1cccc(C(=O)N2CCCCC2)c1 [Compound 443]	<30%	39%	67%					
CC(C)C(CC(=O)NC1CCCCC1)N1Cc2cc(Oc3ccccc3)ccc2N=C1N (stereo not drawn) [Compound 401]	<30%	<30%	52%					
NC1=Nc2ccc(Oc3ccccc3)cc2CN1Cc1ocnc1C(=O)NC1CCCCC1 [Compound 640]	<30%	<30%	<30%					
CN(C(=O)c1ncoc1CN1Cc2cc(Oc3ccccc3)ccc2N=C1N)C1CCCCC1 [Compound 641]	<30%	<30%	48%					
NC1=Nc2ccc(-c3ccccc3Cl)cc2CN1CCNC(=O)C1CCCC1 [Compound 650]	72%	94%	112%					
CCCC(CCC)C(=O)N1CCC(N2Cc3cc(Oc4ccccc4)ccc3N=C2N)CC1 [Compound 523]	<30%	<30%	58%					
NC1=Nc2ccc(-c3ccc(F)cc3)cc2CN1CCNC(=O)C1CCCCC1 [Compound 624]	<30%						38%	78%
NC1=Nc2ccc(C3=CCCCC3)cc2CN1CCNC(=O)C1CCC(C(F)(F)F)CC1 (stereo not drawn) [Compound 704]				<30%	<30%	<30%		
CC(C)Oc1ccccc1Oc1ccc2c(c1)CN(Cc1cccc(C(=O)N(C)C3CCCCC3)c1)C(N)=N2 [Compound 478]	<30%	<30%	46%					
CC(CC(=O)NCCN1Cc2cc(-c3ccccc3)ccc2N=C1N)C(F)(F)F (stereo not drawn) [Compound 685]				50%	90%	101%		

Compound	% Inhibition (FS) 0.3 μM (0.3 μM test compound)	% Inhibition (FS) 1 μM (1 μM test compound)	% Inhibition (FS) 3 μM (3 μM test compound)	% Inhibition (FS) (0.3 μM test compound)	% Inhibition (FS) (1 μM test compound)	% Inhibition (FS) (3 μM test compound)	% Inhibition (FS) 1 μM (1 μM test compound, 1 µM)	% Inhibition (FS) 3 μM (3 μM test compound, 3 µM)
CN(C(=O)c1cccc(CN2Cc3cc(-c4ccncc4)ccc3N=C2N)c1)C1CCCCC1 [Compound 168]	<30%	<30%	<30%					
CC(C)(C)C(=O)NCCN1Cc2cc(-c3ccncc3)ccc2N=C1N [Compound 573]	<30%	<30%	<30%					
CC(C)CCC(=O)NCC(Cc1ccc(O)cc1)N1Cc2cc(Oc3ccccc3)ccc2N=C1N (stereo not drawn) [Compound 615]	<30%	<30%	<30%					
CS(=O)(=O)Nc1ccccc1-c1ccc2c(c1)CN(CCNC(=O)C1CCCCC1)C(N)=N2 [Compound 539]	<30%	<30%	<30%					
CN(C(=O)CCC(C1CCCCC1)N1Cc2cc(Oc3ccccc3)ccc2N=C1N)c1ccc(C(=O)O)cc1 (stereo not drawn) [Compound 766]				<30%	<30%	<30%		
CN(C(=O)c1cccc(CN2Cc3cc(Oc4ccccc4C(=O)N4CCCC4)ccc3N=C2N)c1)C1CCCCC1 [Compound 483]	<30%	<30%	<30%					
COc1ccccc1-c1ccc2c(c1)CN([C@@H](CCC(=O)N(C)Cc1cnn(-c3ccccc3)c1)C1CCCCC1)C(N)=N2 [Compound 717]				33%	39%	72%		
COc1ccccc1-c1ccc2c(c1)CN(CCNC(=O)C1CCC(C(F)(F)F)CC1)C(N)=N2 (stereo not drawn) [Compound 698]				<30%	<30%	64%		
NC1=Nc2ccc(Oc3ccccc3)cc2CN1C(CNC(=O)C1CCCC1)C1CCCCC1 (stereo not drawn) [Compound 295]	79%	106%	116%					
NC1=Nc2ccc(-c3ccc4ccccc4c3)cc2CN1CCNC(=O)C1CCCC1 [Compound 664]				<30%	<30%	<30%		
CC(C)COc1ccc2c(c1)CN(Cc1cccc(C(=O)N(C)C3CCCCC3)c1)C(N)=N2 [Compound 518]	<30%	<30%	<30%					
CN(C(=O)c1cccc(CN2Cc3cc(-c4ccc5[nH]ccc5c4)ccc3N=C2N)c1)C1CCCCC1 [Compound 175]	<30%	<30%	37%					
CCCCCC(CCC(=O)NC1CCCCCC1)N1Cc2cc(Oc3ccccc3)ccc2N=C1N (stereo not drawn) [Compound 150]	<30%	<30%	90%					
CN(C(=O)c1cccc(CN2Cc3cc(OCC4CCCC4)ccc3N=C2N)c1)C1CCCCC1 [Compound 521]	<30%	<30%	<30%					
CN1CCC(N(C)C(=O)c2cccc(C(c3ccccc3)N3Cc4cc(Oc5ccccc5)ccc4N=C3N)c2)CC1 (stereo not drawn) [Compound 316]	<30%	<30%	<30%					
NC1=Nc2ccc(Oc3ccccc3)cc2CN1CCCNC1CCCCC1 [Compound 403]	<30%	<30%	66%					
NC1=Nc2ccc(Oc3ccccc3)cc2CN1CCNCC1CCCCC1 [Compound 427]	<30%	26%	62%					
CCCC(=O)NCCN1Cc2cc(-c3ccccc3F)ccc2N=C1N [Compound 645]	67%	57%	91%					
C[C@@H](CNC(=O)C1CCCCC1)N1Cc2cc(Oc3ccccc3)ccc2N=C1N [Compound 486]	<30%	<30%	<30%					
NC1=Nc2ccc(-c3cccc(C(F)(F)F)c3)cc2CN1CCNC(=O)CC1CCCC1 [Compound 584]	<30%	<30%	56%					
